Measurements as given in ChEMBL document CHEMBL1201862, “PubChem BioAssay data set” (2004).
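Values below derive from 48-hour exposures of cells grown in 96-well plates, with endpoints linearly interpolated between the two concentrations bracketing the appropriate inhibition level. GI50 marks 50% less growth.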 Calls of active or inactive are those of the source. Rule as the data show it: active = GI50 up to about 1.1 µM and inactive = higher.

Columns and labels:
Test in all cases: NCI-60 cell line screen, 48 h
[1] = test system: M19-MEL
[2] = test system: DMS-273
[3] = test system: LXFL 529
[4] = test system: HOP-18
[5] = test system: DMS-114
[6] = test system: DLD-1
[7] = test system: KM-20L2
[8] = test system: RXF 631
[9] = test system: XF498

Measured: GI50

Cc1cc(=O)n(-c2ccccc2)c(=O)o1
inactive: [1] > 100 µM | [2] > 100 µM | [3] > 100 µM | [4] > 100 µM | [5] > 100 µM | [6] > 100 µM | [7] > 100 µM

CC1OC(n2cc(C(F)(F)F)c(=O)[nH]c2=O)C=CC1=O (stereo unspecified)
inactive: [1] 20.3 µM | [8] 12.7 µM | [3] 17.1 µM | [9] 16.6 µM | [6] 18.8 µM | [7] 22.3 µM

COC(=O)C1=C(C(=O)OC)C2C(C)=CC(C)=CN2C(C#N)=C(SC)S1 (stereo unspecified)
inactive: [1] 17.7 µM | [2] 31.8 µM | [3] 16.9 µM | [5] 22.6 µM | [6] 22.6 µM | [7] 32.7 µM

O=C(COc1ccc(Cl)cc1)N1CCN(C(=O)COc2ccc(Cl)cc2)c2ccccc21
inactive: [1] 38.1 µM | [2] 39.2 µM | [3] 37.4 µM | [9] 24.5 µM | [4] 71.3 µM | [5] 29.5 µM | [6] 64 µM | [7] > 100 µM

CC12CP(=O)(c3ccccc3)CC1C2(Cl)Cl (stereo unspecified)
inactive: [1] > 100 µM | [2] > 100 µM | [3] > 100 µM | [9] > 100 µM | [4] > 100 µM | [5] > 100 µM | [6] > 100 µM | [7] > 100 µM

N#CC1(C=O)c2ccccc2C=CN1C(=O)c1ccccc1 (stereo unspecified)
inactive: [1] 33.7 µM | [8] 56.5 µM | [2] 49.2 µM | [3] 33.3 µM | [9] 22 µM | [4] 41.4 µM | [5] 19.8 µM | [7] 43.6 µM

COC(=O)C(=O)C(C(=O)C(=O)Nc1ccc(C)cc1C)c1nc2ccccc2nc1O (stereo unspecified)
inactive: [1] > 100 µM | [8] 46.7 µM | [3] 43.9 µM | [9] 58.3 µM | [4] 36 µM | [6] 50.7 µM | [7] > 100 µM

CC(=O)Nc1c(Nc2ccccc2)[nH]c(C)nc1=S
inactive: [2] > 100 µM | [3] > 100 µM | [9] > 100 µM | [5] > 100 µM | [6] > 100 µM | [7] > 100 µM

CC(=O)OCC1OC(N2C(=O)C(=O)c3ccccc32)C(OC(C)=O)C(OC(C)=O)C1OC(C)=O (stereo unspecified)
inactive: [1] 91.2 µM | [8] > 100 µM | [2] > 100 µM | [3] > 100 µM | [4] > 10 µM | [5] > 100 µM | [6] > 100 µM | [7] > 100 µM

CC(C)OC(=O)C1Cc2c([nH]c3ccccc23)C(c2ccccc2)N1 (stereo unspecified)
inactive: [1] > 100 µM | [2] > 100 µM | [3] 79.6 µM | [9] > 100 µM | [5] 52.4 µM | [6] 23.6 µM | [7] > 100 µM

CCOC(=O)/C(C#N)=C1/C(O)=C(C(=O)OC)C(C(=O)OC)=C1C(=O)OC.c1ccncc1
inactive: [1] > 100 µM | [2] > 100 µM | [3] > 100 µM | [6] > 100 µM | [7] > 100 µM

C[N+](C)(C)CC(=O)N/N=C(\CCC(=O)NCCc1ccccc1)CC(=O)c1ccccc1
inactive: [1] > 100 µM | [2] > 100 µM | [3] > 100 µM | [9] > 100 µM | [4] > 100 µM | [5] > 100 µM | [6] > 100 µM | [7] > 100 µM

COc1cc(CCc2cccnc2)cc(OC)c1OC
inactive: [1] > 100 µM | [2] > 100 µM | [3] > 100 µM | [4] > 100 µM | [5] 77.4 µM | [6] > 100 µM | [7] > 100 µM
